What follows are compounds tested against T1, full length human recombinant glucocorticoid receptor (Homo sapiens, UniProt P04150) (assay: Glucocorticoid Receptor Binding Assay (fluorescence polarization competitor assay, Fluormone GS Far Red tracer)).
T1 construct: partially purified full length human recombinant glucocorticoid receptor; purchased Panvera/Invitrogen PV4302
T1 sequence (P04150 1-777): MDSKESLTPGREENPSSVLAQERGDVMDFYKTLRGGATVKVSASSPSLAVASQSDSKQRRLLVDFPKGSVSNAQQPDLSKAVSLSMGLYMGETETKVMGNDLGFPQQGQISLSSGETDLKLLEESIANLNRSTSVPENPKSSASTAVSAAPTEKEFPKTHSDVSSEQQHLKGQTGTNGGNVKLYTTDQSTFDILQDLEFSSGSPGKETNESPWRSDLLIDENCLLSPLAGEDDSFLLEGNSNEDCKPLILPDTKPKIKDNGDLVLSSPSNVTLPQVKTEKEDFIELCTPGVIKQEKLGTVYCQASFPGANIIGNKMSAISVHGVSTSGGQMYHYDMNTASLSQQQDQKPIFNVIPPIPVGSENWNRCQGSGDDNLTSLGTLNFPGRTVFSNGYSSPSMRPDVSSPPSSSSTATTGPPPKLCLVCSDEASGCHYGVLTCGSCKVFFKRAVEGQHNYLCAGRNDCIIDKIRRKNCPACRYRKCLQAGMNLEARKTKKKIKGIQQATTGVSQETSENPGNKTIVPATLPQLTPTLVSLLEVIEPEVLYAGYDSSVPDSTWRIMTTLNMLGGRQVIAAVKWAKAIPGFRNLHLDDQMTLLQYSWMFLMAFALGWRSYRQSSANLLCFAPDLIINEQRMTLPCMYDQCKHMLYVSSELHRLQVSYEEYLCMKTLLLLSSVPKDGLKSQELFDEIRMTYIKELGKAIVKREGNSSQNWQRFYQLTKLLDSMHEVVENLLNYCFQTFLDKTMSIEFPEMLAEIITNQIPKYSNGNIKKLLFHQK
Method: Glucocorticoid Receptor Binding Assay
The ability of the substances to bind to the glucocorticoid receptor was determined with the help of a commercial Glucocorticoid Receptor Competitor Assay far red kit provided by Panvera/Invitrogen (PV4302). This kit is used as provided by the supplier. It contains some partially purified full length human recombinant glucocorticoid receptor, a coactivator related GR stabilizing peptide, a tight-binding fluorescent GR ligand Fluormone™ GS Far Red as labeled tracer and a screening buffer. All reagents are prepared and the assay is run according to the recommendations of the kit manufacturer.
Briefly, the GR stabilizing peptide and the human recombinant glucocorticoid receptor are both diluted with the screening buffer (pH 7.4) and are gently mixed (no vortexing) just before the assay and kept on ice until use. The fluorescent-labeled ligand is also diluted with the screening buffer just before the assay and kept on ice until use. The substances to test are pre-diluted in pure DMSO then some water is added to get an intermediate 4.2% DMSO stock solution. Ten microliter of the intermediate stock solution is gently mixed with 5 μl of diluted fluorescent-labeled ligand and 5 μl of diluted human recombinant glucocorticoid receptor in a 384-well plate (low volume, ultraclear, glass plate from Greiner ref 788896). The plate is centrifuged, sealed and incubated for 3 hours at 22° C. in the dark. The polarized fluorescence is measured with a Zeiss-HTS reader or any equivalent equipment (610-660 nm).
All compounds were tested to determine IC50 in a serial dilution experiment. The concentration at which 50% inhibition of the fluorescent GR ligand Fluormone™ GS Far Red is obtained (the IC50) is determined after fitting with a sigmoidal dose-response model of a plot of the logarithm of the concentration versus percent inhibition measured for the different concentrations. Ki's were calculated from IC50 based on Cheng-Prusoff equation (Cheng, Y, Prusoff, W H (1973) Biochem Pharmacol 22, 3099-3108): Ki=IC50/[1+D/Kd] wherein D is the concentration of the fluorescent ligand and Kd is the binding constant for the fluorescent ligand binding to the receptor under the conditions used in the competition experiment.

Ki [nM]	Compound
2.4	COC(=O)c1ccc(Oc2ccc([C@@H](C)[C@@](O)(c3ccc(=O)n(C)c3)C(F)(F)F)c(Cl)c2)cc1 (relative stereo) [Example 151, 4-{3-Chloro-4-[3,3,3-trifluoro-2-hydroxy-1-methyl-2(1-methyl-6-oxo-1,6-dihydro-pyridin-3-yl)-propyl]-phenoxy}-benzoic acid methyl ester]
7.1	CC(c1ccc(Oc2ccc(F)c(C(=O)O)c2)cc1Cl)C(O)(c1ccnc(Cl)c1)C(F)(F)F (stereo not drawn) [Example 91, 5-{3-Chloro-4-[2-(2-chloro-pyridin-4-yl)-3,3,3-trifluoro-2-hydroxy-1-methyl-propyl]-phenoxy}-2-fluoro-benzoic acid]
0.6	C[C@@H](c1ccc(Oc2ccc(C(=O)O)c(Cl)c2)cc1Cl)[C@](O)(c1cc(Cl)c(=O)n(C)c1)C(F)(F)F (stereo in doubt) [Example 222, 2-Chloro-4-{3-chloro-4-[2-(5-chloro-1-methyl-6-oxo-1,6-dihydro-pyridin-3-yl)-3,3,3-trifluoro-2-hydroxy-1-methyl-propyl]-phenoxy}-benzoic acid]
3.1	CCOC(=O)COc1cc(Oc2ccc([C@@H](C)[C@@](O)(c3ccc(=O)n(C)c3)C(F)(F)F)c(Cl)c2)ccc1F (stereo in doubt) [Example 161, (5-{3-Chloro-4-[3,3,3-trifluoro-2-hydroxy-1-methyl-2-(1-methyl-6-oxo-1,6-dihydro-pyridin-3-yl)-propyl]-phenoxy}-2-fluoro-phenoxy)-acetic acid ethyl ester]
14.5	CCOC(=O)C(C)(C)Oc1ccc([C@H](C)[C@](O)(c2ccc(=O)n(C)c2)C(F)(F)F)c(Cl)c1Cl (relative stereo) [Example 239, 2-{2,3-Dichloro-4-[3,3,3-trifluoro-2-hydroxy-1-methyl-2-(1-methyl-6-oxo-1,6-dihydro-pyridin-3-yl)-propyl]-phenoxy}-2-methyl-propionic acid ethyl ester]
72.3	COC(=O)c1ccc(COc2ccc([C@@H](C)[C@@](O)(c3cnc(C)cn3)C(F)(F)F)c(Cl)c2)c(OC)c1 (racemic) [Example 15, 4-{3-Chloro-4-[3,3,3-trifluoro-2-hydroxy-1-methyl-2-(5-methyl-pyrazin-2-yl)-propyl]-phenoxymethyl}-3-methoxy-benzoic acid methyl ester]
4.4	Cc1cc(C(O)(C(C)c2ccc(/C=C/c3ccc(C(=O)O)cc3)cc2Cl)C(F)(F)F)ccn1 (stereo not drawn) [Example 66, 4-((E)-2-{3-Chloro-4-[3,3,3-trifluoro-2-hydroxy-1-methyl-2-(2-methyl-pyridin-4-yl)-propyl]-phenyl}-vinyl)-benzoic acid]
315	CC(c1ccc(NC(=O)c2cccc(C(=O)O)c2)cc1Cl)C(O)(c1ccnc(Cl)c1)C(F)(F)F (stereo not drawn) [Example 70, N-{3-Chloro-4-[2-(2-chloro-pyridin-4-yl)-3,3,3-trifluoro-2-hydroxy-1-methyl-propyl]-phenyl}-isophthalamic acid]
51.4	C[C@@H](c1cc(Oc2ccc(C(=O)O)c(Cl)c2)ccc1Cl)[C@](O)(c1ccc(=O)n(C)c1)C(F)(F)F (stereo in doubt) [Example 190, 2-Chloro-4-{4-chloro-3-[3,3,3-trifluoro-2-hydroxy-1-methyl-2-(1-methyl-6-oxo-1,6-dihydro-pyridin-3-yl)-propyl]-phenoxy}-benzoic acid]
4.9	COC(=O)c1ccc(Oc2ccc([C@@H](C)[C@@](O)(c3ccc(=O)n(C)c3)C(F)(F)F)c(Cl)c2)cc1Cl (stereo in doubt) [Example 153, 2-Chloro-4-{3-chloro-4-[3,3,3-trifluoro-2-hydroxy-1-methyl-2-(1-methyl-6-oxo-1,6-dihydro-pyridin-3-yl)-propyl]-phenoxy}-benzoic acid methyl ester]
228	C[C@H](c1ccc(C(=O)Nc2cccc(C(=O)O)n2)cc1Cl)[C@@](O)(c1ccnc(Cl)c1)C(F)(F)F (relative stereo) [Example 44, 6-{3-Chloro-4-[2-(2-chloro-pyridin-4-yl)-3,3,3-trifluoro-2-hydroxy-1-methyl-propyl]-benzoylamino}-pyridine-2-carboxylic acid]
7.5	COC(=O)c1ccc(COc2ccc([C@@H](C)[C@@](O)(c3ccnc(Cl)c3)C(F)(F)F)c(Cl)c2)c(OC)c1 (relative stereo) [Example 21, 4-{3-Chloro-4-[2-(2-chloro-pyridin-4-yl)-3,3,3-trifluoro-2-hydroxy-1-methyl-propyl]-phenoxymethyl}-3-methoxy-benzoic acid methyl ester]
40.6	COC(=O)c1cnc(Oc2ccc(C(C)C(O)(c3ccnc(Cl)c3)C(F)(F)F)c(Cl)c2)nc1 (stereo not drawn) [Example 116, 2-{3-Chloro-4-[2-(2-chloro-pyridin-4-yl)-3,3,3-trifluoro-2-hydroxy-1-methyl-propyl]-phenoxy}-pyrimidine-5-carboxylic acid methyl ester]
178	CC(c1ccc(NS(=O)(=O)c2ccc(C(=O)O)cc2)cc1Cl)C(O)(c1ccnc(Cl)c1)C(F)(F)F (stereo not drawn) [Example 76, 4-{3-Chloro-4-[2-(2-chloro-pyridin-4-yl)-3,3,3-trifluoro-2-hydroxy-1-methyl-propyl]-phenylsulfamoyl}-benzoic acid]
84	COC(=O)Cc1ccc(COc2ccc([C@@H](C)[C@@](O)(c3cnc(C)cn3)C(F)(F)F)c(Cl)c2)cc1 (racemic) [Example 11, (4-{3-Chloro-4-[3,3,3-trifluoro-2-hydroxy-1-methyl-2-(5-methyl-pyrazin-2-yl)-propyl]-phenoxymethyl}-phenyl)-acetic acid methyl ester]
112	C[C@H](c1ccc(Oc2cnc(C(=O)O)cn2)c(Cl)c1Cl)[C@@](O)(c1ccc(=O)n(C)c1)C(F)(F)F (stereo in doubt) [Example 238, 5-{2,3-Dichloro-4-[3,3,3-trifluoro-2-hydroxy-1-methyl-2-(1-methyl-6-oxo-1,6-dihydro-pyridin-3-yl)-propyl]-phenoxy}-pyrazine-2-carboxylic acid]
289	C[C@H](c1ccc(C(=O)Nc2cccc(C(=O)O)c2)cc1Cl)[C@@](O)(c1ccnc(Cl)c1)C(F)(F)F (stereo in doubt) [Example 41, 3-{3-Chloro-4-[2-(2-chloro-pyridin-4-yl)-3,3,3-trifluoro-2-hydroxy-1-methyl-propyl]-benzoylamino}-benzoic acid]
245	CCOC(=O)C1CCN(C(=O)c2ccc([C@@H](C)[C@@](O)(c3ccnc(Cl)c3)C(F)(F)F)c(Cl)c2)CC1 (stereo in doubt) [Example 32, 1-{3-Chloro-4-[2-(2-chloro-pyridin-4-yl)-3,3,3-trifluoro-2-hydroxy-1-methyl-propyl]-benzoyl}-piperidine-4-carboxylic acid ethyl ester]
93.5	COC(=O)c1ccc(-c2ccc([C@H](C)[C@](O)(c3ccc(OC)nc3)C(F)(F)F)c(Cl)c2)cc1F (stereo in doubt) [Example 176, 3′-Chloro-3-fluoro-4′-[3,3,3-trifluoro-2-hydroxy-2-(6-methoxy-pyridin-3-yl)-1-methyl-propyl]-biphenyl-4-carboxylic acid methyl ester]
1.8	COC(=O)c1ccc(Oc2ccc([C@@H](C)[C@@](O)(c3ccc(=O)n(C)c3)C(F)(F)F)c(Cl)c2Cl)cc1 (relative stereo) [Example 197, 4-{2,3-Dichloro-4-[3,3,3-trifluoro-2-hydroxy-1-methyl-2-(1-methyl-6-oxo-1,6-dihydro-pyridin-3-yl)-propyl]-phenoxy}-benzoic acid methyl ester]
40.9	Cc1cc(C(O)(C(C)c2ccc(OCc3ccc(C(=O)O)nc3)cc2Cl)C(F)(F)F)ccn1 (stereo not drawn) [Example 98, 5-{3-Chloro-4-[3,3,3-trifluoro-2-hydroxy-1-methyl-2-(2-methyl-pyridin-4-yl)-propyl]-phenoxymethyl}-pyridine-2-carboxylic acid]

Source: patent US8138189B2, “Substituted benzene compounds as modulators of the glucocorticoid receptor” (Hoffman-La Roche Inc., priority 2009, dated 2012)
